# From US11319299B2, “Substituted carboxamides as inhibitors of WDR5 protein-protein binding” (PROPELLON THERAPEUTICS INC., priority 2016, dated 2022)
# Biological target: WDR5 (Homo sapiens (Human), UniProt P61964)
# Assay: Surface Plasmon Resonance (SPR) assay, KD and residence time
# Format: binding
# Conditions: surface plasmon resonance (SPR); read-out: WDR5 binding affinity (KD)
row,SMILES,Kd [nM]
1,"CC1CN(c2cc(F)c(-c3cccc(N4CCOCC4)n3)cc2NC(=O)c2ccc(F)cc2C(F)(F)F)CCN1C (stereo in doubt) [Example 673, 4-fluoro-N-[4-fluoro-5-(6-morpholin-4-ylpyridin-2-yl)-2-[(3R)-3,4-dimethylpiperazin-1-yl]phenyl]-2-(trifluoromethyl)benzamide]",3.18
2,"CC1CN(c2cc(F)c(C3=CCCN(c4ncc(C#N)s4)C3)cc2NC(=O)c2c[nH]c(=O)cc2C(F)F)CCN1C (stereo in doubt) [Example 688, N-[5-[1-(5-cyano-1,3-thiazol-2-yl)-3,6-dihydro-2H-pyridin-5-yl]-4-fluoro-2-[(3R)-3,4-dimethylpiperazin-1-yl]phenyl]-4-(difluoromethyl)-6-oxo-1H-pyridine-3-carboxamide]",2.49
3,"CC1CN(c2cc(F)c(C3=CCCN(c4ncc(C#N)s4)C3)cc2NC(=O)c2ccc(F)cc2C(F)(F)F)CCN1C (stereo in doubt) [Example 689, N-[5-[1-(5-cyano-1,3-thiazol-2-yl)-3,6-dihydro-2H-pyridin-5-yl]-4-fluoro-2-[(3R)-3,4-dimethylpiperazin-1-yl]phenyl]-4-fluoro-2-(trifluoromethyl)benzamide]",6.28
4,"CC1CN(c2cc(F)c(C3=CCCN(C(=O)OC4CC(F)(F)C4)C3)cc2NC(=O)c2c[nH]c(=O)cc2C(F)F)CCN1C (stereo in doubt) [Example 705, (3,3-difluorocyclobutyl) 5-[5-[[4-(difluoromethyl)-6-oxo-1H-pyridine-3-carbonyl]amino]-2-fluoro-4-[(3R)-3,4-dimethylpiperazin-1-yl]phenyl]-3,6-dihydro-2H-pyridine-1-carboxylate]",2.02
5,"CC1CN(c2cc(F)c(C3=CCCN(C(=O)OC4CC(F)(F)C4)C3)cc2NC(=O)c2ccc(F)cc2C(F)(F)F)CCN1C (stereo in doubt) [Example 706, (3,3-difluorocyclobutyl) 5-[2-fluoro-5-[[4-fluoro-2-(trifluoromethyl)benzoyl]amino]-4-[(3R)-3,4-dimethylpiperazin-1-yl]phenyl]-3,6-dihydro-2H-pyridine-1-carboxylate]",3.81
6,"CC1CN(c2cc(F)c(C3=CCN(C(=O)OC4CC(F)(F)C4)CC3)cc2NC(=O)c2ccc(F)cc2C(F)(F)F)CCN1C (stereo in doubt) [Example 707, (3,3-difluorocyclobutyl) 4-[2-fluoro-5-[[4-fluoro-2-(trifluoromethyl)benzoyl]amino]-4-[(3R)-3,4-dimethylpiperazin-1-yl]phenyl]-3,6-dihydro-2H-pyridine-1-carboxylate]",2.16
7,"CC1CN(c2cc(F)c(C3=CCN(c4ccnc(C#N)n4)CC3)cc2NC(=O)c2c[nH]c(=O)cc2C(F)F)CCN1C (stereo in doubt) [Example 708, N-[5-[1-(2-cyanopyrimidin-4-yl)-3,6-dihydro-2H-pyridin-4-yl]-4-fluoro-2-[(3R)-3,4-dimethylpiperazin-1-yl]phenyl]-4-(difluoromethyl)-6-oxo-1H-pyridine-3-carboxamide]",0.58
8,"CC1CN(c2cc(F)c(-c3cnn(CCN4CCOCC4)c3)cc2NC(=O)c2cn(C)c(=O)cc2C(F)F)CCN1C (stereo in doubt) [Example 715, 4-(difluoromethyl)-N-[4-fluoro-5-[1-(2-morpholin-4-ylethyl)pyrazol-4-yl]-2-[(3R)-3,4-dimethylpiperazin-1-yl]phenyl]-1-methyl-6-oxopyridine-3-carboxamide]",10.9
9,"CC1CN(c2cc(F)c(-c3cccc(N4CCOCC4)n3)cc2NC(=O)c2c[nH]c(=O)cc2C(F)(F)F)CCN1C (stereo in doubt) [Example 719, N-[4-fluoro-5-(6-morpholin-4-ylpyridin-2-yl)-2-[(3R)-3,4-dimethylpiperazin-1-yl]phenyl]-6-oxo-4-(trifluoromethyl)-1H-pyridine-3-carboxamide]",1.18

# The remaining lines, values ahead:
row,Kd [nM],SMILES
1,18.3,"CC1CN(c2cc(F)c(-c3ccc(C(N)=O)c(F)c3F)cc2NC(=O)c2ccc(F)cc2C(F)(F)F)CCN1C (stereo in doubt) [Example 668, 2,3-difluoro-4-[2-fluoro-5-[[4-fluoro-2-(trifluoromethyl)benzoyl]amino]-4-[(3R)-3,4-dimethylpiperazin-1-yl]phenyl]benzamide]"
2,5.02,"CC1CN(c2cc(F)c(-c3cccc(N4CCOCC4)n3)cc2NC(=O)c2cn(C)c(=O)cc2C(F)F)CCN1C (stereo in doubt) [Example 672, 4-(difluoromethyl)-N-[4-fluoro-5-(6-morpholin-4-ylpyridin-2-yl)-2-[(3R)-3,4-dimethylpiperazin-1-yl]phenyl]-1-methyl-6-oxopyridine-3-carboxamide]"
3,1.99,"CC1CN(c2cc(F)c(C3=CCN(c4ncc(C#N)s4)CC3)cc2NC(=O)c2c[nH]c(=O)cc2C(F)F)CCN1C (stereo in doubt) [Example 686, N-[5-[1-(5-cyano-1,3-thiazol-2-yl)-3,6-dihydro-2H-pyridin-4-yl]-4-fluoro-2-[(3R)-3,4-dimethylpiperazin-1-yl]phenyl]-4-(difluoromethyl)-6-oxo-1H-pyridine-3-carboxamide]"
4,1.03,"CC1CN(c2cc(F)c(C3=CCN(C(=O)OC4CC(F)(F)C4)CC3)cc2NC(=O)c2c[nH]c(=O)cc2C(F)F)CCN1C (stereo in doubt) [Example 703, (3,3-difluorocyclobutyl) 4-[5-[[4-(difluoromethyl)-6-oxo-1H-pyridine-3-carbonyl]amino]-2-fluoro-4-[(3R)-3,4-dimethylpiperazin-1-yl]phenyl]-3,6-dihydro-2H-pyridine-1-carboxylate]"
5,2.76,"CC1CN(c2cc(F)c(-c3cnn(CCN4CCOCC4)c3)cc2NC(=O)c2c[nH]c(=O)cc2C(F)(F)F)CCN1C (stereo in doubt) [Example 714, N-[4-fluoro-5-[1-(2-morpholin-4-ylethyl)pyrazol-4-yl]-2-[(3R)-3,4-dimethylpiperazin-1-yl]phenyl]-6-oxo-4-(trifluoromethyl)-1H-pyridine-3-carboxamide]"
6,1.09,"CC1CN(c2cc(F)c(-c3ccnc(N4CCOCC4)n3)cc2NC(=O)c2c[nH]c(=O)cc2C(F)(F)F)CCN1C (stereo in doubt) [Example 718, N-[4-fluoro-5-(2-morpholin-4-ylpyrimidin-4-yl)-2-[(3R)-3,4-dimethylpiperazin-1-yl]phenyl]-6-oxo-4-(trifluoromethyl)-1H-pyridine-3-carboxamide]"
7,1.31,"CC1CN(c2cc(F)c(-c3ccnc(N4CCOCC4)n3)cc2NC(=O)c2c[nH]c(=O)cc2C(F)F)CCN1C (stereo in doubt) [Example 720, 4-(difluoromethyl)-N-[4-fluoro-5-(2-morpholin-4-ylpyrimidin-4-yl)-2-[(3R)-3,4-dimethylpiperazin-1-yl]phenyl]-6-oxo-1H-pyridine-3-carboxamide]"
8,1.62,"CC1CN(c2cc(F)c(-c3cccc(N4CCOCC4)n3)cc2NC(=O)c2c[nH]c(=O)cc2C(F)F)CCN1C (stereo in doubt) [Example 721, 4-(difluoromethyl)-N-[4-fluoro-5-(6-morpholin-4-ylpyridin-2-yl)-2-[(3R)-3,4-dimethylpiperazin-1-yl]phenyl]-6-oxo-1H-pyridine-3-carboxamide]"
